Experimental data taken from US9458110B2, “Phenylpyrazole derivatives as potent ROCK1 and ROCK2 inhibitors” (BRISTOL-MYERS SQUIBB COMPANY, priority 2013, dated 2016).

Experiments:
ROCK2 = ROCK2 (Homo sapiens (Human), UniProt O75116); experiment: ROCK assay (Caliper LABCHIP peptide phosphorylation), ROCK2; assay type: biochemical; conditions: 5 μM ATP, 1.5 μM peptide substrate;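 further: reaction stopped with EDTA, then phosphorylated and unphosphorylated peptide resolved by microfluidic electrophoresis, kinase inhibition computed at each compound concentration in dose-response series, DMSO under 2%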
Sequence of ROCK2 (O75116 whole entry, species assumed): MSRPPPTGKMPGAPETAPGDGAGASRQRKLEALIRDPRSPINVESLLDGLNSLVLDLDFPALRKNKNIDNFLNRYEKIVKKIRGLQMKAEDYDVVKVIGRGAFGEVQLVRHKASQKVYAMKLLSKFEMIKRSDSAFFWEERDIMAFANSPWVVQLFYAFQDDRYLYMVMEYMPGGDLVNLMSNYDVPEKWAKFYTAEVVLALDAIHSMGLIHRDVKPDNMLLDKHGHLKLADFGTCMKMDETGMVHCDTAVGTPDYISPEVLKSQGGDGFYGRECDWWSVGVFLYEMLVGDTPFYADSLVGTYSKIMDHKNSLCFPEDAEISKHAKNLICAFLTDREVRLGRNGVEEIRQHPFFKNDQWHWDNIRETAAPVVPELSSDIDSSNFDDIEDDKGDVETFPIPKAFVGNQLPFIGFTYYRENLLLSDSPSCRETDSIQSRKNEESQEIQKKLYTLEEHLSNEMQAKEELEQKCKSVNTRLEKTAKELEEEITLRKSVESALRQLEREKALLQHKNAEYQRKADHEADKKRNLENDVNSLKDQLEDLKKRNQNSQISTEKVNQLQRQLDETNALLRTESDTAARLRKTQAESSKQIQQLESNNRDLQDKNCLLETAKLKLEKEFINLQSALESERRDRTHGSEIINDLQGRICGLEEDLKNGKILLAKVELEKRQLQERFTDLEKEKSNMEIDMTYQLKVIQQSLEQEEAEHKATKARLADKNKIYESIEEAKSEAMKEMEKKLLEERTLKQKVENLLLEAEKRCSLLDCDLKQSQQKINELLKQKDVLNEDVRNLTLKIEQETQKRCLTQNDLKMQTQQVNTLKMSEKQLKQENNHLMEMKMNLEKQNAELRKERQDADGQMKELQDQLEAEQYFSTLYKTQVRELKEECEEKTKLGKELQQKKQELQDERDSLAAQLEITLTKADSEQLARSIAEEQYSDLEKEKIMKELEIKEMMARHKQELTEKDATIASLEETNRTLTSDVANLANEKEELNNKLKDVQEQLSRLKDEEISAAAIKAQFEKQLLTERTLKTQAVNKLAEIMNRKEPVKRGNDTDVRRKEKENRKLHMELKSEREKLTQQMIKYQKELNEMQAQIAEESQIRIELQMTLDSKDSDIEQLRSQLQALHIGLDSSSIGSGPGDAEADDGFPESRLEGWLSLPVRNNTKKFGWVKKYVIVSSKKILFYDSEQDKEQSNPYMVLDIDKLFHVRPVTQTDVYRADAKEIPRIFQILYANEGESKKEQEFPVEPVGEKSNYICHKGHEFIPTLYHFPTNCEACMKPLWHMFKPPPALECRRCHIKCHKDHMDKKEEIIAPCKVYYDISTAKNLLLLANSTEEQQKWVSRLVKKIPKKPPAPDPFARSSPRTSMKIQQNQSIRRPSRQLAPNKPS

ROCK1 = ROCK1 (Homo sapiens (Human), UniProt Q13464); experiment: ROCK assay (Caliper LABCHIP peptide phosphorylation), ROCK1; assay type: biochemical; conditions: 5 μM ATP, 1.5 μM peptide substrate;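 further: Read-out is separation of phosphorylated from unphosphorylated peptide, with kinase activity inhibition computed at every concentration of a dose-response series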
Sequence of ROCK1 (Q13464 whole entry, species assumed): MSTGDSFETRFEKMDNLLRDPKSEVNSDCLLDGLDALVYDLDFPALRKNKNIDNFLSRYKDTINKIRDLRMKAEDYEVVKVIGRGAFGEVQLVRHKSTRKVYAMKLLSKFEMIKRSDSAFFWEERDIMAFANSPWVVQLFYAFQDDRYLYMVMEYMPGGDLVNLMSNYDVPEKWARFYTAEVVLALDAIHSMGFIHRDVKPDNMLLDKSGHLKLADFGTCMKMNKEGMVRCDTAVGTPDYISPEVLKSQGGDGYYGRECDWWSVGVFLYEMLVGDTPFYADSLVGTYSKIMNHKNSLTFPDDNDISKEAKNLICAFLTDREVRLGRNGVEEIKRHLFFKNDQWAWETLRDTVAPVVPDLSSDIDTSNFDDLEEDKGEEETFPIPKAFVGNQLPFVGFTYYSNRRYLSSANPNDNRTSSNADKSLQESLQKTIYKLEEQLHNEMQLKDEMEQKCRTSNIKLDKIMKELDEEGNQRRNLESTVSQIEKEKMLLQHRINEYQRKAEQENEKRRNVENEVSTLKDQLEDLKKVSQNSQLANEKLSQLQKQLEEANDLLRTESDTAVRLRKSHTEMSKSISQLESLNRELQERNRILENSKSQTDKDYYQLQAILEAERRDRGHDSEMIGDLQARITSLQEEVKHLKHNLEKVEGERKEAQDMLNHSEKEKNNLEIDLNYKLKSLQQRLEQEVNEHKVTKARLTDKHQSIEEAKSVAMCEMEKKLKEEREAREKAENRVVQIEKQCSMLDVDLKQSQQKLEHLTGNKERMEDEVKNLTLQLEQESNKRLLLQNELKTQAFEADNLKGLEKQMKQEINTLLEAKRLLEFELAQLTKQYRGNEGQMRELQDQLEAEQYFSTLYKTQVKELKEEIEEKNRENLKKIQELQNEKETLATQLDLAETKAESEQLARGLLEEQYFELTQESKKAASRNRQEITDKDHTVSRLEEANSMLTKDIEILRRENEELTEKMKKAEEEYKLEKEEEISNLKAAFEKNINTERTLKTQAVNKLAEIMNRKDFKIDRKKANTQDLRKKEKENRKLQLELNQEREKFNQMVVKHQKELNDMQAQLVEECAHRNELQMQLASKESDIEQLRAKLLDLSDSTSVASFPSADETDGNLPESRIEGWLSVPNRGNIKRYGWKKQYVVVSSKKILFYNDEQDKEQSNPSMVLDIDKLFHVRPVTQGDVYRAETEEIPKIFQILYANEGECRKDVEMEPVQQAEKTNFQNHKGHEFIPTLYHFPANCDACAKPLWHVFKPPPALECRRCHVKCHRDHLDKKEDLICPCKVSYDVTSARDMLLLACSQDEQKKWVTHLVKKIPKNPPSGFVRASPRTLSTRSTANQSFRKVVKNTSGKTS

COc1cc(C(=O)NCc2cccc(C(N)=O)c2)ccc1-c1cn[nH]c1 [Example 250, N-[(3-carbamoylphenyl)methyl]-3-methoxy-4-(1H-pyrazol-4-yl)benzamide]
IC50 (ROCK2): 0.72 nM | IC50 (ROCK1): 10 nM

Cc1cc(C(=O)N[C@H](CC(=O)O)c2ccccc2)ccc1-c1cn[nH]c1 [Example 251, (3R)-3-{[3-Methyl-4-(1H-pyrazol-4-yl)phenyl]formamido}-3-phenylpropanoic acid]
IC50 (ROCK2): 33.7 nM | IC50 (ROCK1): 45.7 nM

Cc1cc(C(=O)N[C@H](CC(=O)NCC(C)(C)O)c2ccccc2)ccc1-c1cn[nH]c1 [Example 253, (3R)-N-(2-Hydroxy-2-methylpropyl)-3-{[3-methyl-4-(1H-pyrazol-4-yl)phenyl]formamido}-3-phenylpropanamide]
IC50 (ROCK2): 255 nM | IC50 (ROCK1): 99 nM

CC(=O)NC[C@@H](NC(=O)c1ccc(-c2cn[nH]c2)c(C)c1)c1ccccc1 [Example 255, N-[(2S)-2-{[3-Methyl-4-(1H-pyrazol-4-yl)phenyl]formamido}-2-phenylethyl]acetamide]
IC50 (ROCK2): 10.9 nM | IC50 (ROCK1): 97.2 nM

Cc1cc(C(=O)N[C@H](CN)c2ccccc2)ccc1-c1cn[nH]c1 [Example 256, N-[(15)-2-amino-1-phenylethyl]-3-methyl-4-(1H-pyrazol-4-yl)benzamide]
IC50 (ROCK2): 0.72 nM | IC50 (ROCK1): 3.38 nM

CC(C)(O)COc1cc(C(=O)N[C@H](CN)c2ccccc2)ccc1-c1cn[nH]c1 [Example 257, N-[(15)-2-amino-1-phenylethyl]-3-(2-hydroxy-2-methylpropoxy)-4-(1H-pyrazol-4-yl)benzamide]
IC50 (ROCK2): 52.8 nM | IC50 (ROCK1): 85.1 nM

NC[C@@H](NC(=O)c1ccc(-c2cn[nH]c2)c(OCCO)c1)c1ccccc1 [Example 258, N-[(15)-2-amino-1-phenylethyl]-3-(2-hydroxyethoxy)-4-(1H-pyrazol-4-yl)benzamide]
IC50 (ROCK2): 3.45 nM | IC50 (ROCK1): 8.92 nM

COc1cc(C(=O)N[C@H](CNC(C)=O)c2ccccc2)ccc1-c1cn[nH]c1 [Example 259, N-[(25)-2-{[3-methoxy-4-(1H-pyrazol-4-yl)phenyl] formamido}-2-phenylethyl] acetamide]
IC50 (ROCK2): 9.37 nM | IC50 (ROCK1): 23.6 nM

COc1cc(C(=O)N[C@H](CNS(C)(=O)=O)c2ccccc2)ccc1-c1cn[nH]c1 [Example 260, N-[(1S)-2-methane-sulfonamido-1-phenylethyl]-3-methoxy-4-(1H-pyrazol-4-yl)benzamide]
IC50 (ROCK2): 1.9 nM | IC50 (ROCK1): 6.62 nM

COc1cc(C(=O)N[C@H](CNS(=O)(=O)C2CC2)c2ccccc2)ccc1-c1cn[nH]c1 [Example 261, N-[(1S)-2-cyclopropane-sulfonamido-1-phenylethyl]-3-methoxy-4-(1H-pyrazol-4-yl)benzamide]
IC50 (ROCK2): 2.89 nM | IC50 (ROCK1): 11.3 nM

CCS(=O)(=O)NC[C@@H](NC(=O)c1ccc(-c2cn[nH]c2)c(OC)c1)c1ccccc1 [Example 262, N-[(1S)-2-ethane-sulfonamido-1-phenylethyl]-3-methoxy-4-(1H-pyrazol-4-yl)benzamide]
IC50 (ROCK2): 36 nM | IC50 (ROCK1): 55.2 nM

Cc1cc(C(=O)N[C@H](CN(C)C)c2ccccc2)ccc1-c1cn[nH]c1 [Example 263, N-[(1S)-2-(Dimethylamino)-1-phenylethyl]-3-methyl-4-(1H-pyrazol-4-yl)benzamide]
IC50 (ROCK2): 3.94 nM | IC50 (ROCK1): 6.45 nM

CC[C@@H](NC(=O)c1ccc(-c2cn[nH]c2)c(OC)c1)c1c(F)cccc1F [Example 264, N-[(1R)-1-(2,6-Difluorophenyl)propyl]-3-methoxy-4-(1H-pyrazol-4-yl)benzamide]
IC50 (ROCK2): 23.4 nM | IC50 (ROCK1): 77.3 nM

CCNC[C@@H](NC(=O)c1ccc(-c2cn[nH]c2)c(OC)c1)c1c(F)cccc1F [Example 265, N-[(1S)-1-(2,6-Difluorophenyl)-2-(ethylamino)ethyl]-3-methoxy-4-(1H-pyrazol-4-yl)benzamide]
IC50 (ROCK2): 1.29 nM | IC50 (ROCK1): 2.26 nM

COc1cc(C(=O)N[C@H](CNC2CC2)c2c(F)cccc2F)ccc1-c1cn[nH]c1 [Example 266, N-[(1S)-2-(Cyclopropylamino)-1-(2,6-difluorophenyl)ethyl]-3-methoxy-4-(1H-pyrazol-4-yl)benzamide]
IC50 (ROCK2): 4.53 nM | IC50 (ROCK1): 4.62 nM

COc1cc(C(=O)NCc2ccccc2C(C)C)ccc1-c1cn[nH]c1 [Example 267, 3-Methoxy-N-{[2-(propan-2-yl)phenyl]methyl}-4-(1H-pyrazol-4-yl)benzamide]
IC50 (ROCK2): 104 nM | IC50 (ROCK1): 204 nM

C[C@@H](NC(=O)c1ccc(-c2cn[nH]c2)c(CO)c1)c1ccc(F)cc1 [Example 271, N-[(1R)-1-(4-Fluorophenyl)ethyl]-3-(hydroxymethyl)-4-(1H-pyrazol-4-yl)benzamide]
IC50 (ROCK2): 75 nM | IC50 (ROCK1): 3450 nM

C[C@@H](NC(=O)c1ccc(-c2cn[nH]c2)c(CO)c1)c1ccccc1 [Example 272, 3-(hydroxymethyl)-N-[(1R)-1-phenylethyl]-4-(1H-pyrazol-4-yl)benzamide]
IC50 (ROCK2): 58.8 nM | IC50 (ROCK1): 284 nM

CC(O)c1cc(C(=O)N[C@H](C)c2ccccc2)ccc1-c1cn[nH]c1 (stereo partly drawn) [Example 273, 3-(1-hydroxyethyl)-N-[(1R)-1-phenylethyl]-4-(1H-pyrazol-4-yl)benzamide]
IC50 (ROCK2): 7.73 nM | IC50 (ROCK1): 50 nM

COC[C@@H](NC(=O)c1ccc(-c2cn[nH]c2)c(C(C)O)c1)c1ccccc1 (stereo partly drawn) [Example 274, 3-(1-hydroxyethyl)-N-[(1S)-2-methoxy-1-phenylethyl]-4-(1H-pyrazol-4-yl)benzamide]
IC50 (ROCK2): 263 nM | IC50 (ROCK1): 287 nM

CC(NC(=O)c1ccc(-c2cn[nH]c2)c(C=O)c1)c1ccccc1F (stereo not drawn) [Example 275, N-[1-(2-fluorophenyl)ethyl]-3-formyl-4-(1H-pyrazol-4-yl)benzamide]
IC50 (ROCK2): 1420 nM | IC50 (ROCK1): 983 nM

CC(NC(=O)c1ccc(-c2cn[nH]c2)c(C=O)c1)c1ccccc1F (stereo not drawn) [Example 276, N-[1-(2-fluorophenyl)ethyl]-3-formyl-4-(1H-pyrazol-4-yl)benzamide]
IC50 (ROCK2): 409 nM | IC50 (ROCK1): 509 nM

COC[C@@H](NC(=O)c1ccc(-c2cn[nH]c2)c(C(C)O)c1)c1ccccc1 (stereo partly drawn) [Example 277, 3-(1-hydroxyethyl)-N-[(1S)-2-methoxy-1-phenylethyl]-4-(1H-pyrazol-4-yl)benzamide]
IC50 (ROCK2): 44.2 nM | IC50 (ROCK1): 156 nM

CC(O)c1cc(C(=O)NC(C)c2ccccc2F)ccc1-c1cn[nH]c1 (stereo not drawn) [Example 278, N-[1-(2-fluorophenyl)ethyl]-3-(1-hydroxyethyl)-4-(1H-pyrazol-4-yl)benzamide]
IC50 (ROCK2): 1320 nM | IC50 (ROCK1): 1780 nM

CC(O)c1cc(C(=O)NC(C)c2ccccc2F)ccc1-c1cn[nH]c1 (stereo not drawn) [Example 279, N-[1-(2-fluorophenyl)ethyl]-3-(1-hydroxyethyl)-4-(1H-pyrazol-4-yl)benzamide]
IC50 (ROCK2): 15.7 nM | IC50 (ROCK1): 52.9 nM

CC(O)c1cc(C(=O)N[C@H](C)c2ccccc2)ccc1-c1cn[nH]c1 (stereo partly drawn) [Example 280, 3-(1-hydroxyethyl)-N-[(1R)-1-phenylethyl]-4-(1H-pyrazol-4-yl)benzamide]
IC50 (ROCK2): 443 nM | IC50 (ROCK1): > 2000 nM

CC(O)c1cc(C(=O)N[C@H](C)c2ccccc2)ccc1-c1cn[nH]c1 (stereo partly drawn) [Example 281, 3-(1-hydroxyethyl)-N-[(1R)-1-phenylethyl]-4-(1H-pyrazol-4-yl)benzamide]
IC50 (ROCK2): 9.73 nM | IC50 (ROCK1): 26.8 nM
